# Measurements as given in ChEMBL document CHEMBL4706588, “Rational design and biological evaluation of a new class of thiazolopyridyl tetrahydroacridines as cholinesterase and GSK-3 dual inhibitors for Alzheimer's disease” (Eur J Med Chem, 2020).
# Activity calls are given as the source filed them. No cut-off for these calls is given here.
# Legend:
# [1] = target: T1, Dual specificity tyrosine-phosphorylation-regulated kinase 1B (Homo sapiens, UniProt Q9Y463); experiment: Inhibition of DYRK1beta (unknown origin) at 300 nM relative to control
# Target sequence in this assay (Q9Y463 whole entry, looked up): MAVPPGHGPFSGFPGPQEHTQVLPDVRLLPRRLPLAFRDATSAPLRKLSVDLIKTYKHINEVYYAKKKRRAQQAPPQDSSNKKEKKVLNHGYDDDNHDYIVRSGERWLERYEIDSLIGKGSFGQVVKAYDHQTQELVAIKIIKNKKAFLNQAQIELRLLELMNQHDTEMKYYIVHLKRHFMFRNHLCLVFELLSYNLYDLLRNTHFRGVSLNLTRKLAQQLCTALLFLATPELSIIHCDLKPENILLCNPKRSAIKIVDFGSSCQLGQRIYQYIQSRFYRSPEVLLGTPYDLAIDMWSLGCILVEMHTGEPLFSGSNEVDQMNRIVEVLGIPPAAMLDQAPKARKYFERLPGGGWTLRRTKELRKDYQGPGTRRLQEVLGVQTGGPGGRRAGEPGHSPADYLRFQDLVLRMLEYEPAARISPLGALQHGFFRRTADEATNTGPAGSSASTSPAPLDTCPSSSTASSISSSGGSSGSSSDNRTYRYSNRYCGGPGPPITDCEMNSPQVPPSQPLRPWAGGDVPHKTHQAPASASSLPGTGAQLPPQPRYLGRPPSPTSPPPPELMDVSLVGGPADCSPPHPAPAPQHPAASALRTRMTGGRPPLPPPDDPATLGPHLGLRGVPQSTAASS
# [2] = organism: Homo sapiens; experiment: Selectivity for GSK3 (unknown origin) over JNK3 (unknown origin)
# [3] = organism: Homo sapiens; experiment: Selectivity for GSK3 (unknown origin) over MAPK p38 beta (unknown origin)
# [4] = organism: Homo sapiens; experiment: Selectivity for GSK3 (unknown origin) over CDK7 (unknown origin)
# [5] = target: Mitogen-activated protein kinase 3 (Homo sapiens) (UniProt P27361); experiment: Inhibition of ERK1 (unknown origin) at 300 nM relative to control
# [6] = in vitro; details: PAMPA
# Description: Effective permeability of compound at 100 ug/ml incubated for 20 hrs by PAMPA-BBB assay
# [7] = organism: Homo sapiens; experiment: Selectivity for GSK3 (unknown origin) over CDK6 (unknown origin)
# [8] = system: N2a; experiment: Effect on tau protein expression in mouse N2a cells transfected with human tau protein at 5 to 15 uM incubated for 1 hr followed by okadaid-acid addition and measured after 5 hrs by Western blot analysis; type: functional, cell-based; details: dose 5-15 µM, time 6.0 hrs
# [9] = Effect on swimming speed in ICR mouse model of scopolamine-induced memory impairment at 15 mg/kg, po administered 30 mins prior to scopolamine injection by Morris water maze test; type: ADME, organism-based; details: in vivo, 0.5 h
# [10] = target: Mitogen-activated protein kinase 14 (Homo sapiens) (UniProt Q16539); experiment: Inhibition of P38alpha (unknown origin) at 300 nM relative to control
# [11] = target: T1, Dual specificity tyrosine-phosphorylation-regulated kinase 1B; experiment: Inhibition of DYRK1beta (unknown origin)
# Target sequence in this assay (Q9Y463 whole entry): as the sequence (Q9Y463 whole entry, looked up) above
# [12] = target: Cyclin-dependent kinase 4 (Homo sapiens) (UniProt P11802); experiment: Inhibition of CDK4 (unknown origin) at 300 nM relative to control
# [13] = target: T2, Glycogen synthase kinase-3 beta (Homo sapiens, UniProt P49841); experiment: Inhibition of GSK-3beta (unknown origin) at 300 nM relative to control
# Target sequence in this assay (P49841 whole entry, looked up): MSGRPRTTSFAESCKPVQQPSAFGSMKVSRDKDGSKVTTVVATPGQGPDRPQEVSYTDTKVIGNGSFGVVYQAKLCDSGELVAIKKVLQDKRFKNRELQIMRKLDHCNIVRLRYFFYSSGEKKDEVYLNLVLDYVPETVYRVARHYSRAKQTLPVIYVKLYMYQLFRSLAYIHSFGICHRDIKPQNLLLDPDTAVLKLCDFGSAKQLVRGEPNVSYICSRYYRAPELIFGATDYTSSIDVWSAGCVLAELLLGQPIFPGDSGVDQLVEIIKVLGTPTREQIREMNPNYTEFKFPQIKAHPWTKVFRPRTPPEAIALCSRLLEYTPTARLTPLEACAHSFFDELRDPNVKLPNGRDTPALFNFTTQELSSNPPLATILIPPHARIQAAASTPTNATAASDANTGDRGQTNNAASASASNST
# [14] = target: T2, Glycogen synthase kinase-3 beta; experiment: biochemical
# Target sequence in this assay (P49841 whole entry): as the sequence (P49841 whole entry, looked up) above
# Description: Inhibition of recombinant human N-terminal His6-tagged GSK-3beta H350L mutant expressed in baculovirus infected Sf21 cells using GSM as substrate incubated for 30 mins in presence of ATP by kinase-glo luminescence assay
# [15] = target: Glycogen synthase kinase-3 beta (Mus musculus) (UniProt Q9WV60); experiment: Inhibition of GSK3beta in mouse N2a cells overexpressing human tau protein assessed as phosphorylated tau Ser396 residue level at 15 uM incubated for 1 hr followed by okadaid-acid addition and measured after 5 hrs by Western blot analysis relative to control; type: cell-based; set-up: scale not given: the % may be the effect or the level left; details: time 6.0 hrs
# [16] = organism: Homo sapiens; experiment: Selectivity for GSK3 (unknown origin) over CDK2 (unknown origin)
# [17] = target: Cyclin-dependent kinase 2 (Homo sapiens) (UniProt P24941); experiment: Inhibition of CDK2 (unknown origin) at 300 nM relative to control
# [18] = target: Mitogen-activated protein kinase 12 (Homo sapiens) (UniProt P53778); experiment: Inhibition of P38gamma (unknown origin) at 300 nM relative to control
# [19] = target: Glycogen synthase kinase-3 beta (Mus musculus) (UniProt Q9WV60); experiment: Inhibition of GSK3beta in mouse N2a cells overexpressing human tau protein assessed as phosphorylated tau Ser396 residue level at 10 uM incubated for 1 hr followed by okadaid-acid addition and measured after 5 hrs by Western blot analysis relative to control; type: cell-based; set-up: scale not given: the % may be the effect or the level left; details: time 6.0 hrs
# [20] = target: Mitogen-activated protein kinase 1 (Homo sapiens) (UniProt P28482); experiment: Inhibition of ERK2 (unknown origin) at 300 nM relative to control
# [21] = target: Mitogen-activated protein kinase 10 (Homo sapiens) (UniProt P53779); experiment: Inhibition of JNK3 (unknown origin) at 300 nM relative to control
# [22] = organism: Homo sapiens; experiment: Selectivity for GSK3 (unknown origin) over ERK1 (unknown origin)
# [23] = target: T3, Dual specificity tyrosine-phosphorylation-regulated kinase 1A (Homo sapiens, UniProt Q13627); experiment: Inhibition of DYRK1alpha (unknown origin)
# [24] = organism: Homo sapiens; experiment: Selectivity for GSK3 (unknown origin) over CDK1 (unknown origin)
# [25] = target: Mitogen-activated protein kinase 13 (Homo sapiens) (UniProt O15264); experiment: Inhibition of P38delta (unknown origin) at 300 nM relative to control
# [26] = target: T3, Dual specificity tyrosine-phosphorylation-regulated kinase 1A; experiment: Inhibition of DYRK1alpha (unknown origin) at 300 nM relative to control
# [27] = organism: Homo sapiens; experiment: Selectivity for GSK3 (unknown origin) over ERK2 (unknown origin)
# [28] = system: BV-2; experiment: Inhibition of LPS-induced ROS production in mouse BV-2 cells at 5 uM incubated for 1 hr followed by LPS stimulation and measured after 24 hrs by DCFH-DA staining based inverted fluorescence microscopic analysis; type: functional, cell-based; details: time 25.0 hrs
# [29] = organism: Homo sapiens; experiment: Selectivity for GSK3 (unknown origin) over CDK9 (unknown origin)
# [30] = target: Glycogen synthase kinase-3 beta (Mus musculus) (UniProt Q9WV60); experiment: Inhibition of GSK3beta in mouse N2a cells overexpressing human tau protein assessed as reduction in tau Ser396 residue phosphorylation at 5 uM incubated for 1 hr followed by okadaid-acid addition and measured after 5 hrs by Western blot analysis relative to control; type: cell-based; details: time 6.0 hrs
# [31] = organism: Homo sapiens; experiment: Selectivity for GSK3 (unknown origin) over JNK2 (unknown origin)
# [32] = organism: Homo sapiens; experiment: Selectivity for GSK3 (unknown origin) over MAPK p38 alpha (unknown origin)
# [33] = target: Glycogen synthase kinase-3 alpha (Homo sapiens) (UniProt P49840); experiment: Inhibition of GSK-3alpha (unknown origin) at 300 nM relative to control
# [34] = system: Mus musculus; experiment: Cognitive enhancing effect in ICR mouse model of scopolamine-induced memory impairment assessed as improvement in trajectories to platform at 15 mg/kg, po administered 30 mins prior to scopolamine injection by Morris water maze test; type: functional, organism-based
# [35] = organism: Homo sapiens; experiment: Selectivity for GSK3 (unknown origin) over CDK4 (unknown origin)
# [36] = organism: Homo sapiens; experiment: Selectivity for GSK3 (unknown origin) over MAPK p38 gamma (unknown origin)
# [37] = organism: Homo sapiens; experiment: Selectivity for GSK3 (unknown origin) over MAPK p38 delta (unknown origin)
# [38] = target: Cholinesterase (Homo sapiens, UniProt P06276); experiment: Inhibition of human BuChE using butyrylthiocholine iodide as substrate preincubated with enzyme for 1 min followed by substrate addition and measured after 10 mins by Ellman's method
# [39] = target: Mitogen-activated protein kinase 9 (Homo sapiens) (UniProt P45984); experiment: Inhibition of JNK2 (unknown origin) at 300 nM relative to control
# [40] = target: Acetylcholinesterase (Homo sapiens, UniProt P22303); experiment: Inhibition of human AChE using acetylthiocholine iodide as substrate preincubated with enzyme for 1 min followed by substrate addition and measured after 10 mins by Ellman's method
# [41] = Effect on cell morphology in LPS-treated mouse BV-2 cells at 5 uM pretreated for 1 hr followed by incubation with LPS for 24 hrs by fluorescence microscopic analysis; type: ADME; details: bv-2, 25 h
# Chain of Glycogen synthase kinase-3 beta (Mus musculus) (Q9WV60 whole entry, looked up): as the sequence (P49841 whole entry, looked up) above, with T390P, T392A, A400T, T402A counted along it
# Chain of Cholinesterase (P06276 whole entry): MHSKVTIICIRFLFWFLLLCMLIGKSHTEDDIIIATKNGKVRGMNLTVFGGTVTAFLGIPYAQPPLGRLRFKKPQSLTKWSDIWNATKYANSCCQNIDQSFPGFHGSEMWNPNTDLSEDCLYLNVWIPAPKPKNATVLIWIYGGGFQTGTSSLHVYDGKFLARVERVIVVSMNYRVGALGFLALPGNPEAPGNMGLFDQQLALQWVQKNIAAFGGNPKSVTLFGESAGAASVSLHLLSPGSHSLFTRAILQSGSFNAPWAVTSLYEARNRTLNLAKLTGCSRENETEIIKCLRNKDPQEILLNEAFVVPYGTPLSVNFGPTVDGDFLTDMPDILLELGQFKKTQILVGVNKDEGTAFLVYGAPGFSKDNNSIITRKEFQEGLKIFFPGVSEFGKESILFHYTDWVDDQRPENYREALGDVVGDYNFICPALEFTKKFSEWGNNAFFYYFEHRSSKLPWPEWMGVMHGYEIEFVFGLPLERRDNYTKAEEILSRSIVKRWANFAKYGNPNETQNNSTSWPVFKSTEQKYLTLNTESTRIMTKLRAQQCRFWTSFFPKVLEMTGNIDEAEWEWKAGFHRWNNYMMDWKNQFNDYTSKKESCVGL
# Chain of Mitogen-activated protein kinase 9 (Homo sapiens) (P45984 whole entry, looked up): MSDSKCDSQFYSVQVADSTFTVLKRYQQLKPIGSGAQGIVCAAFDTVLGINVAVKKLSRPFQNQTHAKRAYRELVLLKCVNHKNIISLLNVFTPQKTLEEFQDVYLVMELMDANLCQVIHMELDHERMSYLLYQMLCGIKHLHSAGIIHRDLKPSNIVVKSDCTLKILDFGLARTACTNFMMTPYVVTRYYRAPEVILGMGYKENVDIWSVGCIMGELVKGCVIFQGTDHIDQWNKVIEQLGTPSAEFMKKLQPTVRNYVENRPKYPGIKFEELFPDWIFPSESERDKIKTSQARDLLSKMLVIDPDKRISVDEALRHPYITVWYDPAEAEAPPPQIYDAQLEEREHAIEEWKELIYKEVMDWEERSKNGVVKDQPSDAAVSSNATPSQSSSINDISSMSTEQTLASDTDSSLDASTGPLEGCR
# Chain of Mitogen-activated protein kinase 10 (Homo sapiens) (P53779 whole entry): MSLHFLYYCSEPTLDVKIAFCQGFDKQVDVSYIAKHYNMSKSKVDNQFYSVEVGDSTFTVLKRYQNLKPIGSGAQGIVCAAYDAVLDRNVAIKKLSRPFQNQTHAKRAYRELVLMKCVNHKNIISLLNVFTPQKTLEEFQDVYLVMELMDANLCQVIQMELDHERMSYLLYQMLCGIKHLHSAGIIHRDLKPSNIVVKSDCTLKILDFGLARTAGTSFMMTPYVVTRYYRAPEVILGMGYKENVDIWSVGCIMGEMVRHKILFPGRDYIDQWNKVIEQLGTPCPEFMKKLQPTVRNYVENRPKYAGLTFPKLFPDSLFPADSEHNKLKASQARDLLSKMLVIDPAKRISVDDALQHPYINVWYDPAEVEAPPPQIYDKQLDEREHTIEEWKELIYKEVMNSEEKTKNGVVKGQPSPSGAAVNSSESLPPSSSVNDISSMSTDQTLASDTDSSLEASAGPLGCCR
# Chain of Mitogen-activated protein kinase 12 (Homo sapiens) (P53778 whole entry): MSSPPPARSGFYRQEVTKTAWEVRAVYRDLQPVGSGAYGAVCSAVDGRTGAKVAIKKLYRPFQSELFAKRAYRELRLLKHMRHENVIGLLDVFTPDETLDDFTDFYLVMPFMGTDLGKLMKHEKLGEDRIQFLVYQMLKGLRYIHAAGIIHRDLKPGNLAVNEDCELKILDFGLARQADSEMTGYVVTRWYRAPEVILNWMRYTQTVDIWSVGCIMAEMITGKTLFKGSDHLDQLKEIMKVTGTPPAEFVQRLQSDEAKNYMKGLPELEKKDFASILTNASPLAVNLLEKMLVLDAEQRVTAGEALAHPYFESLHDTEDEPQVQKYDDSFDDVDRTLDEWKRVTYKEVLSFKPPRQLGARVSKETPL
# Chain of Acetylcholinesterase (P22303 whole entry): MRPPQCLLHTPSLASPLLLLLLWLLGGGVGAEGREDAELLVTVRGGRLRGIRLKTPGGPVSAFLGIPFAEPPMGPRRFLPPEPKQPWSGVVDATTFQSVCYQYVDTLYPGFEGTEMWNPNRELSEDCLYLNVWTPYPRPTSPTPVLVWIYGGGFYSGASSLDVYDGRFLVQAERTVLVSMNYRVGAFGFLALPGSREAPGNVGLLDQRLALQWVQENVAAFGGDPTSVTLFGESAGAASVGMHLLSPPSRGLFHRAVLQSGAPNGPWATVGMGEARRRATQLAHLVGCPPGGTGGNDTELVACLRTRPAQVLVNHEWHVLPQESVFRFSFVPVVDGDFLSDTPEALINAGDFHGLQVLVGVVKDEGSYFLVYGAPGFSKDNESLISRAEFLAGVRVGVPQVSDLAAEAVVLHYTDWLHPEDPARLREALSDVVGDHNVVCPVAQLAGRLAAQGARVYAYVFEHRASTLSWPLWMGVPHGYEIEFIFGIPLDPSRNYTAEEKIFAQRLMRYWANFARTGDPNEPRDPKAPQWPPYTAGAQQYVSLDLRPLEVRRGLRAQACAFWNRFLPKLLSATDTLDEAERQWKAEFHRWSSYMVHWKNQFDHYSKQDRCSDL
# Chain of Mitogen-activated protein kinase 13 (Homo sapiens) (O15264 whole entry): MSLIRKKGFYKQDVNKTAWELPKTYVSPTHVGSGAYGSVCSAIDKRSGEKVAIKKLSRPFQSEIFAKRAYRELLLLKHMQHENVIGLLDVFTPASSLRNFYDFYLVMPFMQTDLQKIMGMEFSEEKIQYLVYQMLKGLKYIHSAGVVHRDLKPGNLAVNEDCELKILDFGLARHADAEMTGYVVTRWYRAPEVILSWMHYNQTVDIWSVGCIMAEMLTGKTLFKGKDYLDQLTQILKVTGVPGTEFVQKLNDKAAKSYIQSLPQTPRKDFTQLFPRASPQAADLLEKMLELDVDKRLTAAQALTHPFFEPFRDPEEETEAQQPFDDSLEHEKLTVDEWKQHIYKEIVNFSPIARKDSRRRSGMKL
# Chain of Mitogen-activated protein kinase 1 (Homo sapiens) (P28482 whole entry): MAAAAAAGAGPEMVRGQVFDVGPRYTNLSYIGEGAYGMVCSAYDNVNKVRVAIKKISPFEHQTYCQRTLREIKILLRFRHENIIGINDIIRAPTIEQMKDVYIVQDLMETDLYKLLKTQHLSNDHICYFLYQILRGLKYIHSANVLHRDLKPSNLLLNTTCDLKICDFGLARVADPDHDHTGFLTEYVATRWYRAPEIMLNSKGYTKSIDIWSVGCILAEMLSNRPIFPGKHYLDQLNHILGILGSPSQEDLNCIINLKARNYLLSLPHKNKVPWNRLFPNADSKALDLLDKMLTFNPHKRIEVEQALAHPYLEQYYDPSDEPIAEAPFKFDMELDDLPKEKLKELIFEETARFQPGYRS
smiles,measurement,setting,value
CNC(=O)c1sc(-c2ccnc(NC(=O)CNCCNc3c4c(nc5ccccc35)CCCC4)c2)nc1OCC1CC1,inhibition,[1],67.9%
same,Selectivity ratio,[2],100
same,Selectivity ratio,[3],100
same,Selectivity ratio,[4],100
same,inhibition,[5],13.1%
same,"Papp at 20 h, 100 ug/ml",[6],6.9 ×10⁻⁶ cm/s
same,Selectivity ratio,[7],100
same,Activity,[8],inactive
same,Activity,[9],Non-Toxic
same,inhibition,[10],5.21%
same,IC50,[11],120 nM
same,inhibition,[12],3.07%
same,inhibition,[13],86.3%
same,IC50,[14],22 nM
same,Activity,[15],17%
same,Selectivity ratio,[16],100
same,inhibition,[17],3.8%
same,inhibition,[18],7.64%
same,Activity,[19],25.8%
same,inhibition,[20],9.78%
same,inhibition,[21],16.7%
same,Selectivity ratio,[22],100
same,IC50,[23],28.3 nM
same,Selectivity ratio,[24],100
same,inhibition,[25],20.6%
same,inhibition,[26],83.7%
same,Selectivity ratio,[27],100
same,inhibition,[28],Active
same,Selectivity ratio,[29],100
same,inhibition,[30],49%
same,Selectivity ratio,[31],100
same,Selectivity ratio,[32],100
same,inhibition,[33],91.1%
same,Activity,[34],Active
same,Selectivity ratio,[35],100
same,Selectivity ratio,[36],100
same,Selectivity ratio,[37],100
same,IC50,[38],150 nM
same,inhibition,[39],29.8%
same,IC50,[40],1.2 nM
same,Activity,[41],Non-Toxic
